Experimental data taken from the NIST ThermoML archive (doi:10.1016/j.fluid.2014.01.033).
± gives the expanded uncertainty stated by the source.

What was measured:
[1] = 298.15 K; 101.33 kPa; Liquid; Vibrating tube method
[2] = refractive index (Na D-line) (dimensionless); settings: 298.15 K; 101.33 kPa; Liquid; Standard Abbe refractometry

| Structure (SMILES) | mass density [1] [kg/m3] | refractive index [2] |
| --- | --- | --- |
| CC#N [acetonitrile] | 776.55 ± 0.19 | 1.3413 ± 0.0007 |
| CCCCCC [hexane] | 655.12 ± 0.21 | 1.3725 ± 0.0007 |
| c1ccccc1 [benzene] | 873.79 ± 0.17 | 1.4978 ± 0.0007 |
